What was measured:
Experiment in all cases: relative viability (nuclei count vs DMSO), 5 days (fraction); higher = more cells survive
Decitabine + Luminespib = compound: Nc1ncn([C@H]2C[C@H](O)[C@@H](CO)O2)c(=O)n1 [Decitabine] + CCNC(=O)c1noc(-c2cc(C(C)C)c(O)cc2O)c1-c1ccc(CN2CCOCC2)cc1 [Luminespib] (partner 0.01 µM)
Outline: (§1)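 Relative viability is defined as nuclei in treated wells over nuclei in vehicle wells. Duplicate plates were run and medians reported. Lung cancer cell lines in 1536-well plates were dosed by pin tool one day after seeding, with one drug or with a fixed anchor-drug dose plus five library-drug doses (not always all listed) in √10 steps, and nuclei were counted after 5 days.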

Decitabine + Bortezomib = compound: Nc1ncn([C@H]2C[C@H](O)[C@@H](CO)O2)c(=O)n1 [Decitabine] + CC(C)C[C@H](NC(=O)[C@H](Cc1ccccc1)NC(=O)c1cnccn1)B(O)O [Bortezomib] (partner 0.002 µM)
Outline: as §1

[1] = compound: O=C(C[C@H]1NCCC[C@@H]1O)Cn1cnc2cc(Br)c(Cl)cc2c1=O (racemic) [Halofuginone] + O=C(CCCCCCC(=O)Nc1ccccc1)NO [Vorinostat] (partner 1 µM)
Outline: as §1

Cediranib + Luminespib = compound: COc1cc2c(Oc3ccc4[nH]c(C)cc4c3F)ncnc2cc1OCCCN1CCCC1 [Cediranib] + CCNC(=O)c1noc(-c2cc(C(C)C)c(O)cc2O)c1-c1ccc(CN2CCOCC2)cc1 [Luminespib] (partner 0.01 µM)
Outline: as §1

Cell Line	relative viability (Decitabine + Luminespib; first compound 0.04 µM)	relative viability (Decitabine + Luminespib; first compound 0.1265 µM)	relative viability (Decitabine + Luminespib; first compound 0.4 µM)	relative viability (Decitabine + Luminespib; first compound 1.265 µM)	relative viability (Decitabine + Luminespib; first compound 4 µM)	relative viability (Decitabine + Bortezomib; first compound 0.04 µM)	relative viability (Decitabine + Bortezomib; first compound 0.1265 µM)	relative viability (Decitabine + Bortezomib; first compound 0.4 µM)	relative viability (Decitabine + Bortezomib; first compound 1.265 µM)	relative viability (Decitabine + Bortezomib; first compound 4 µM)	relative viability ([1]; first compound 0.001 µM)	relative viability ([1]; first compound 0.003162 µM)	relative viability ([1]; first compound 0.01 µM)	relative viability ([1]; first compound 0.03162 µM)	relative viability ([1]; first compound 0.1 µM)	relative viability (Cediranib + Luminespib; first compound 0.04 µM)	relative viability (Cediranib + Luminespib; first compound 0.1265 µM)	relative viability (Cediranib + Luminespib; first compound 0.4 µM)	relative viability (Cediranib + Luminespib; first compound 1.265 µM)	relative viability (Cediranib + Luminespib; first compound 4 µM)
NCI-H838	0.213	0.188	0.296	0.191	0.165	0.528	0.381	0.293	0.296	0.243	0.752	0.746	0.703	0.507	0.16	0.328	0.289	0.276	0.314	0.272
NCI-H1355	0.538	0.483	0.454	0.298	0.258	0.826	0.583	0.517	0.305	0.297	0.688	0.648	0.596	0.663	0.561	0.739	0.871	0.686	0.813	0.719
NCI-H1437	0.995	0.825	0.633	0.445	0.372	0.38	0.324	0.313	0.221	0.203	0.965	0.886	0.772	0.747	0.501	1.15	1.05	1.04	1.1	1.13
NCI-H1650	0.188	0.182	0.194	0.201	0.179	0.18	0.166	0.185	0.201	0.187	0.688	0.595	0.522	0.566	0.366	0.192	0.161	0.179	0.197	0.173
NCI-H1651	0.942	0.844	0.828	0.69	0.658	0.96	0.936	0.824	0.682	0.76	0.528	0.528	0.572	0.548	0.59	0.763	0.751	0.786	0.861	0.892
NCI-H1666	0.927	0.964	0.815	0.674	0.726	0.723	0.726	0.545	0.625	0.569	1.14	0.966	0.999	0.984	0.955	1.05	1.04	1.05	0.981	1.07
NCI-H1734	0.182	0.172	0.165	0.192	0.157	0.646	0.867	0.571	0.424	0.331	0.891	0.9	0.838	0.753	0.607	0.238	0.185	0.208	0.208	0.176
NCI-H1755	0.451	0.528	0.441	0.394	0.278	0.814	0.877	0.808	0.492	0.381	0.758	0.838	0.722	0.768	0.669	0.556	0.419	0.403	0.232	0.467

From the supplement of paper PMC10307832
